Results as given in US11247976B2, “Synthetic ligands that modulate the activity of the RhlR quorum sensing receptor” (Wisconsin Alumni Research Foundation, priority 2016, dated 2022).
“Also recorded” adds a separate entry of the source. Like-named read-outs stand apart in the source and are kept apart here. Marks after values point to notes of the source that are not given here.

Tests used:
RhlR [1] = target: T1, RhlR (Pseudomonas aeruginosa, UniProt P54292); test: E. coli RhlR reporter agonism assay (JLD271/pJN105R2/pSC11-rhlI*); assay type: cell-based, P. aeruginosa; settings: for activation at 10 µM: compound at 10 μM, RhlR activity relative to 1 mM BHL; for Emax: read-out: Maximum Activation (%); for RhlR agonist potency in words: dose-response; for RhlR agonist activity in words: single-concentration screen at 10 μM
T1 construct: expressed in transfected cells; host or cells: E. coli JLD271 (ΔsdiA) with pJN105R2 (arabinose-induced) and pSC11-rhlI*
Description: (§1) All media and reagents for bacterial culture were purchased from commercial sources. Bacteria were cultured in Luria-Bertani broth (LB) at 37° C. with shaking at 200 rpm unless otherwise noted. The bacterial reporter strains used for this study were (i) the heterologous E. coli strain JLD271 (ΔsdiA) harboring the RhlR expression plasmid pJN105R2 and the rhlI-lacZ transcriptional fusion reporter pSC11-rhlI*, (ii) the heterologous E. coli strain JLD271 (ΔsdiA) harboring the LasR expression plasmid pJN105L and the […] transcriptional fusion reporter pSC11, and (iii) the P. aeruginosa strain PAO-JP2 (ΔlasrhlI) harboring the rhlI-gfp transcriptional fusion reporter prhlI-LVAgfp. Reporter strains JLD271/pJN105R2/pSC11-rhlI* and JLD271/pJN105L/pSC11 were grown in LB containing 100 μg/mL ampicillin and 10 μg/mL gentamicin. Freezer stocks of bacterial strains were maintained at −80° C. in 1:1 LB:50% glycerol.
(§2) To evaluate the modulatory activities of library compounds on RhlR and LasR using E. coli reporters, the strains JLD271/pJN105R2/pSC11-rhlI* and JLD271/pJN105L/pSC11 were used, respectively, as previously described.^38, 51 The following modifications were used in the RhlR agonism reporter assay, non-native compounds (10 μM or 1 mM) were compared to 1 mM BHL as the positive control. Briefly, a subculture was prepared by diluting an overnight culture 1:10 with fresh media containing 100 μg/mL ampicillin and 10 μg/mL gentamicin, and was incubated until it had grown to OD600=0.45. In all assays, L-arabinose was added to a final concentration of 4 mg/mL to induce RhlR expression. For RhlR agonism assays, activities of test compounds were measured relative to 1 mM BHL (the concentration required to induce a maximal level of RhlR activity). For RhlR antagonism assays, test compounds were competed against a concentration of BHL approximately equal to its EC50 value (10 μM). Activity was measured relative to 10 μM BHL. Inhibition was calculated by subtracting 100% from the relative activity value. Thus, 0% inhibition mimics represents no competitive displacement of 10 μM BHL by a test compound. In all assays, modifications were made to the standard Miller assay protocol to accommodate the use of the chlorophenol red-β-D-galactopyranoside (CPRG) β-galactosidase substrate. After cell lysis, 150 μL of the aqueous layer was transferred from each well of a solvent-resistant 96-well microtiter plate to the wells of a new clear, flat-bottom 96-well microtiter plate. CPRG (4 mg/mL in phosphate-buffered saline) was added to each well in 25 μL volumes. Plates were incubated at 30° C. until the positive control wells developed a red color (approximately 30 min). The amount of processed CPRG substrate was assessed by measuring the absorbance of each well at 570 nm. Enzymatic activity was calculated using the following equation: adjusted Miller units=1000·Abs570/(OD600·t·V),
(§3) where t is the incubation time of substrate with lysate and V is the volume of culture lysed.
Because LuxR-type receptors are often unstable in solution, preventing the use of in vitro assays to directly assess small molecule agonism and antagonism, reporter gene assays represent a standard method for screening small-molecule libraries for LuxR-type receptor modulation. Previously reported strains for this purpose were used in the current study.^38 Synthetic N-butanoyl L-homoserine lactone (BHL), the native ligand of RhlR, was used as the positive control for receptor activation. Commonly, agonists are measured relative to maximum possible receptor activation within a particular assay medium;^40 because the dose-response curve of BHL is distinctly shallow in these RhlR reporters, a high concentration of BHL is required to maximally activate RhlR. In this study, activation of compounds was measured relative to that elicited by 1 mM BHL (the concentration of BHL used causes no aberrant growth effects in the reporter strain). […]

LasR = target: T2, LasR (Pseudomonas aeruginosa, UniProt P25084); test: Selectivity of RhlR agonism over LasR agonism (E. coli LasR reporter JLD271/pJN105L/pSC11); assay type: cell-based, P. aeruginosa; settings: RhlR % activity divided by LasR % activity, > = negligible activity in LasR reporter
T2 construct: expressed in transfected cells; host or cells: E. coli JLD271 (ΔsdiA) with pJN105L and pSC11
Description: as §1, §2
LasR assays were processed using the protocol for the substrate ortho-nitrophenyl-β-galactoside (ONPG) as previously described elsewhere.^53; and LasR antagonism assays were performed versus the EC50 for OdDHL (2 nM).
The selectivity of certain compounds for RhlR over LasR was measured using a LasR reporter strain (details above). Table 6 provides a comparison of selectivity of RhlR agonism over LasR agonism for exemplary compounds. Table 7 provides a comparison of selectivity of RhlR antagonism over LasR antagonism for exemplary compounds.

RhlR [2] = target: T1, RhlR; test: P. aeruginosa RhlR reporter agonism assay (PAO-JP2/prhlI-LVAgfp); assay type: cell-based; settings: for Emax: read-out: Maximum Activation (%)
RhlR [3] = target: T1, RhlR; test: E. coli RhlR reporter antagonism assay vs 10 μM BHL (JLD271/pJN105R2/pSC11-rhlI*); assay type: cell-based, P. aeruginosa; settings: for inhibition at 10 µM: read-out: % inhibition (10 μM), compound at 10 μM in the presence of 10 μM BHL; for Maximum Inhibition (%): E. coli reporter, relative to activation of 10 μM BHL alone
Description: as §1
as §2, with “For RhlR antagonism assays, test compounds were competed against a concentration of BHL approximately equal to its EC50 value (10 μM).” left out
as §3
The RhlR-modulatory activity of the J library compounds was assessed in a heterologous reporter strain (E. coli JLD271 harboring plasmids pJN105R2 and pSC11-rhlI*) in order to isolate the RhlR receptor from upstream QS regulation (e.g. regulation by LasR). Thus, the extent to which compounds were directly modulating RhlR could be determined. These assays were performed by incubating compound-treated, mid-log phase E. coli reporter cells in 96-well microtiter plates, followed by Miller assay evaluation of ß-galactosidase activity.
RhlR agonism and antagonism screens of each compound were performed initially at 10 μM.

[4] = negative = agonism stronger than 10 μM BHL alone
[5] = read-out: % inhibition (1 mM), compound at 1 mM in the presence of 10 μM BHL, negative = agonism stronger than 10 μM BHL alone

T2 sequence (P25084 whole entry): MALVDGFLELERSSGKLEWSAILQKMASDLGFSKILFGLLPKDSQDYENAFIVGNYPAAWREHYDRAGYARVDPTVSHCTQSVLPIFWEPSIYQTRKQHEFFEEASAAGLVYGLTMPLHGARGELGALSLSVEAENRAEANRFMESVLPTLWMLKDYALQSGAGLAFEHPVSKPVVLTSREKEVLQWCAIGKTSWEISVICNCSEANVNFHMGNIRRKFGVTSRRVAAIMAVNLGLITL
T1 sequence (P54292 whole entry): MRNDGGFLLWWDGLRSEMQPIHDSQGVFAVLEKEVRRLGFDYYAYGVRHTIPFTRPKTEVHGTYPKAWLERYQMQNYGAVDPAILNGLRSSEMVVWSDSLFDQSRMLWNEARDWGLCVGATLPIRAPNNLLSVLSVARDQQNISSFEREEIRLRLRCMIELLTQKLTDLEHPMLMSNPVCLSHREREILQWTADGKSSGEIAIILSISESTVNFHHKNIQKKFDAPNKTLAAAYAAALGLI

Structure (SMILES)	activation at 10 µM (RhlR [1]; E. coli reporter) [%]	inhibition at 10 µM (RhlR [3]; [4]) [%]	inhibition at 1000 µM (RhlR [3]; [5]) [%]	further results
CCCC(=O)N[C@H]1CCOC1=O [BHL, N-butanoyl L-homoserine lactone, reference compound]	51			EC50 (RhlR [1]): 8.95 µM; Hill slope of agonism dose-response (RhlR [1]; E. coli reporter): 0.7; Emax (RhlR [1]): 100%; Fold selectivity of RhlR agonists over LasR agonism (LasR; tested concentration 1 mM): 18 fold; Fold selectivity of RhlR agonists over LasR agonism (LasR; tested concentration 10 μm): 56 fold; EC50 (RhlR [2]): 8.08 µM; Emax (RhlR [2]): 100%
CC(C)CC(=O)N[C@H]1CCOC1=O [Compound J18, isovaleryl HL]	86	-62	-123	EC50 (RhlR [1]): 1.02 µM; fold more potent than the native ligand (RhlR [1]; E. coli reporter, EC50 vs BHL): ~10 fold; RhlR agonist potency in words (RhlR [1]; E. coli reporter): significantly more potent than BHL; Emax (RhlR [1]): 105%; RhlR agonist activity in words (RhlR [1]; E. coli reporter): comparable RhlR activation to that of BHL; Fold selectivity of RhlR agonists over LasR agonism (LasR; tested concentration 1 mM): >99^b fold; Fold selectivity of RhlR agonists over LasR agonism (LasR; tested concentration 10 μm): 255^ fold; EC50 (RhlR [2]): 1.42 µM; Emax (RhlR [2]): 94%
O=C(N[C@H]1CCOC1=O)C1CCC1 [Compound J24, cyclobutanoyl AHL]	79	-66	-110	EC50 (RhlR [1]): 1.78 µM; RhlR agonist potency in words (RhlR [1]; E. coli reporter): significantly more potent than BHL; also recorded: rivaled in potency that of S4; Emax (RhlR [1]): 100%; RhlR agonist activity in words (RhlR [1]; E. coli reporter): strong; Fold selectivity of RhlR agonists over LasR agonism (LasR; tested concentration 1 mM): 48 fold; Fold selectivity of RhlR agonists over LasR agonism (LasR; tested concentration 10 μm): >79^b fold; EC50 (RhlR [2]): 1.41 µM; Emax (RhlR [2]): 95%
CCCC(=O)NC1CCCC1 [RN4]	0	9	45	
CCCC(=O)N[C@@H]1CCOC1=O [RN5]	2	1	11	
CCCS(=O)(=O)N[C@H]1CCOC1=O [RN6]	1	8	55	
CCCC(=O)O[C@H]1CCOC1=O [RN7]	0	4	6	
CCCC(=O)N[C@H]1CCSC1=O [RN8]	71	-8	-75	EC50 (RhlR [1]): 4.87 µM; Emax (RhlR [1]): 102%; Fold selectivity of RhlR agonists over LasR agonism (LasR; tested concentration 1 mM): 4.5 fold; Fold selectivity of RhlR agonists over LasR agonism (LasR; tested concentration 10 μm): 17 fold; EC50 (RhlR [2]): 14.3 µM; Emax (RhlR [2]): 94%
CCCC(=O)N[C@H]1CCNC1=O [RN9]	1	-1	35	
CCCC(=O)NCC1CCCO1 (centres unmarked) [RN10]	0	1	57	
CCCC(=O)NCC1CCCN1 (centres unmarked) [RN11]	0	-3	-1	
O=C(COc1ccc(I)cc1)NC1CCCC1 [RN17]	1	6		Maximum Inhibition (%) (RhlR [3]): 31%; inhibition at 1000 µM (RhlR [3]; read-out: % inhibition (1 mM), screened at a maximal concentration of 100 microM (solubility), in the presence of 10 μM BHL): 24%
O=C(COc1ccc(I)cc1)NCC1CCCO1 (centres unmarked) [RN23]	0	6	> 50	IC50 (RhlR [3]): > 100 µM; RhlR antagonist activity in words (RhlR [3]; E. coli reporter vs 10 μM BHL): potent antagonist activity; also recorded: negligible maximum potency difference from its head group parent compound RN10; Maximum Inhibition (%) (RhlR [3]): 56%
CC(C)CC(=O)NC1CCCC1 [RN39]	0	11	31	
